Laboratory results: patent publication US20230085307A1, “PYRIDAZINONE COMPOUND AND HERBICIDE” (NISSAN CHEMICAL CORPORATION, priority 2019, published 2023)

How the values were obtained:
[1] = tested on: barnyard grass; assay: Test Example 3: herbicidal effect by foliage application, Wagner pot (Table 18, symbol H); assay type: in vivo, barnyard grass (Echinochloa crus-galli); details: 320 g/ha
Summary of the method: (§1)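 Plants were sown in alluvial soil held under 0.1–0.5 cm standing water and grown 14 days in a greenhouse at 25–30 °C. An emulsifiable formulation, water-diluted to the set dose, was then sprayed onto the foliage, and effects were scored three weeks later using previously defined criteria.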

[2] = tested on: Chinese sprangletop; assay: Test Example 3: herbicidal effect by foliage application, Wagner pot (Table 18, symbol D); assay type: in vivo, chinese sprangletop (Leptochloa chinensis); details: 320 g/ha
Summary of the method: as §1

[3] = tested on: rice flat sedge; assay: Test Example 3: herbicidal effect by foliage application, Wagner pot (Table 18, symbol E); assay type: in vivo, rice flat sedge (Cyperus iria); details: 320 g/ha
Summary of the method: as §1

[4] = tested on: southern crabgrass; assay: Test Example 5: herbicidal effect by foliage application, plastic box (Table 20, symbol F); assay type: in vivo, southern crabgrass (Digitaria ciliaris); details: foliage application after 14-day growth, evaluated three weeks after application; for Herbicidal effect by foliage application, F: southern crabgrass: amount of applied herbicide 320 g/ha
Summary of the method: (§2)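 Plants sown in sterilized diluvial soil and grown 14 days in a greenhouse at 25° C to 30° C, then sprayed on the foliage with the compound's emulsion diluted in water to a predetermined herbicide amount. Injury to weeds and crops scored three weeks after application on a visual rating scale.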

[5] = tested on: green foxtail; assay: Test Example 5: herbicidal effect by foliage application, plastic box (Table 20, symbol G); assay type: in vivo, green foxtail (Setaria viridis); details: foliage application after 14-day growth, evaluated three weeks after application; for Herbicidal effect by foliage application, G: green foxtail: amount of applied herbicide 320 g/ha
Summary of the method: as §2

[6] = tested on: barnyard grass; assay: Test Example 5: herbicidal effect by foliage application, plastic box (Table 20, symbol H); assay type: in vivo, barnyard grass (Echinochloa crus-galli); details: foliage application after 14-day growth, evaluated three weeks after application; for Herbicidal effect by foliage application, H: barnyard grass: amount of applied herbicide 320 g/ha
Summary of the method: as §2

[7] = tested on: wild oat; assay: Test Example 5: herbicidal effect by foliage application, plastic box (Table 20, symbol I); assay type: in vivo, wild oat (Avena fatua); details: foliage application after 14-day growth, evaluated three weeks after application; for Herbicidal effect by foliage application, I: wild oat: amount of applied herbicide 320 g/ha
Summary of the method: as §2

[8] = tested on: blackgrass; assay: Test Example 5: herbicidal effect by foliage application, plastic box (Table 20, symbol J); assay type: in vivo, blackgrass (Alopecurus myosuroides); details: foliage application after 14-day growth, evaluated three weeks after application; for Herbicidal effect by foliage application, J: blackgrass: amount of applied herbicide 320 g/ha
Summary of the method: as §2

[9] = tested on: Italian ryegrass; assay: Test Example 5: herbicidal effect by foliage application, plastic box (Table 20, symbol K); assay type: in vivo, Italian ryegrass (Lolium multiflorum); details: foliage application after 14-day growth, evaluated three weeks after application; for Herbicidal effect by foliage application, K: Italian ryegrass: amount of applied herbicide 320 g/ha
Summary of the method: as §2

[10] = tested on: windgrass; assay: Test Example 5: herbicidal effect by foliage application, plastic box (Table 20, symbol L); assay type: in vivo, windgrass (Apera spica-venti); details: foliage application after 14-day growth, evaluated three weeks after application; for Herbicidal effect by foliage application, L: windgrass: amount of applied herbicide 320 g/ha
Summary of the method: as §2

[11] = tested on: velvetleaf; assay: Test Example 5: herbicidal effect by foliage application, plastic box (Table 20, symbol M); assay type: in vivo, velvetleaf (Abutilon theophrasti); details: foliage application after 14-day growth, evaluated three weeks after application; for Herbicidal effect by foliage application, M: velvetleaf: amount of applied herbicide 320 g/ha
Summary of the method: as §2

[12] = tested on: redroot pigweed; assay: Test Example 5: herbicidal effect by foliage application, plastic box (Table 20, symbol N); assay type: in vivo, redroot pigweed (Amaranthus retroflexus); details: foliage application after 14-day growth, evaluated three weeks after application; for Herbicidal effect by foliage application, N: redroot pigweed: amount of applied herbicide 320 g/ha
Summary of the method: as §2

[13] = tested on: lambsquarters; assay: Test Example 5: herbicidal effect by foliage application, plastic box (Table 20, symbol O); assay type: in vivo, lambsquarters (Chenopodium album); details: foliage application after 14-day growth, evaluated three weeks after application; for Herbicidal effect by foliage application, O: lambsquarters: amount of applied herbicide 320 g/ha
Summary of the method: as §2

[14] = tested on: chickweed; assay: Test Example 5: herbicidal effect by foliage application, plastic box (Table 20, symbol P); assay type: in vivo, common chickweed (Stellaria media); details: foliage application after 14-day growth, evaluated three weeks after application; for Herbicidal effect by foliage application, P: chickweed: amount of applied herbicide 320 g/ha
Summary of the method: as §2

[15] = tested on: persian speedwell; assay: Test Example 5: herbicidal effect by foliage application, plastic box (Table 20, symbol R); assay type: in vivo, Persian speedwell (Veronica persica); details: foliage application after 14-day growth, evaluated three weeks after application; for Herbicidal effect by foliage application, R: persian speedwell: amount of applied herbicide 320 g/ha
Summary of the method: as §2

| Structure (SMILES) | herbicidal effect on barnyard grass (H) [1] | herbicidal effect on Chinese sprangletop (D) [2] | herbicidal effect on rice flat sedge (E) [3] | Herbicidal effect by foliage application, F: southern crabgrass [4] | Herbicidal effect by foliage application, G: green foxtail [5] | Herbicidal effect by foliage application, H: barnyard grass [6] | Herbicidal effect by foliage application, I: wild oat [7] | Herbicidal effect by foliage application, J: blackgrass [8] | Herbicidal effect by foliage application, K: Italian ryegrass [9] | Herbicidal effect by foliage application, L: windgrass [10] | Herbicidal effect by foliage application, M: velvetleaf [11] | Herbicidal effect by foliage application, N: redroot pigweed [12] | Herbicidal effect by foliage application, O: lambsquarters [13] | Herbicidal effect by foliage application, P: chickweed [14] | Herbicidal effect by foliage application, R: persian speedwell [15] | other results |
| --- | --- | --- | --- | --- | --- | --- | --- | --- | --- | --- | --- | --- | --- | --- | --- | --- |
| Cc1nn(C)c(=O)c(-c2c(-c3ccc(C(C)C)cc3)sc3cc(F)c(F)cc23)c1O [5-005] | 3 (Herbicidal rate of 40% or more and less than 70%) | 5 (Herbicidal rate of 90% or more (almost completely withered)) | 4 (Herbicidal rate of 70% or more and less than 90%) | 0 (Herbicidal rate of 5% or less (almost no effect)) | 0 (Herbicidal rate of 5% or less (almost no effect)) | 0 (Herbicidal rate of 5% or less (almost no effect)) | 0 (Herbicidal rate of 5% or less (almost no effect)) | 0 (Herbicidal rate of 5% or less (almost no effect)) | 0 (Herbicidal rate of 5% or less (almost no effect)) | 0 (Herbicidal rate of 5% or less (almost no effect)) | 3 (Herbicidal rate of 40% or more and less than 70%) | 3 (Herbicidal rate of 40% or more and less than 70%) | 0 (Herbicidal rate of 5% or less (almost no effect)) | 5 (Herbicidal rate of 90% or more (almost completely withered)) | 4 (Herbicidal rate of 70% or more and less than 90%) |  |
| C#CCOc1c(C)nn(C)c(=O)c1-c1c(-c2ccccc2OC)sc2cc(OC)ccc12 [3-154] | 3 (Herbicidal rate of 40% or more and less than 70%) | 2 (Herbicidal rate of 20% or more and less than 40%) | 3 (Herbicidal rate of 40% or more and less than 70%) |  |  |  |  |  |  |  |  |  |  |  |  | herbicidal effect on F: southern crabgrass (evaluation grade 0-5) ([4]; 320 g/ha): 0 (Herbicidal rate of 5% or less (almost no effect)); herbicidal effect on G: green foxtail (evaluation grade 0-5) ([5]; 320 g/ha): 3 (Herbicidal rate of 40% or more and less than 70%); herbicidal effect on H: barnyard grass (evaluation grade 0-5) ([6]; 320 g/ha): 3 (Herbicidal rate of 40% or more and less than 70%); herbicidal effect on I: wild oat (evaluation grade 0-5) ([7]; 320 g/ha): 0 (Herbicidal rate of 5% or less (almost no effect)); herbicidal effect on J: blackgrass (evaluation grade 0-5) ([8]; 320 g/ha): 0 (Herbicidal rate of 5% or less (almost no effect)); herbicidal effect on K: Italian ryegrass (evaluation grade 0-5) ([9]; 320 g/ha): 0 (Herbicidal rate of 5% or less (almost no effect)); herbicidal effect on L: windgrass (evaluation grade 0-5) ([10]; 320 g/ha): 0 (Herbicidal rate of 5% or less (almost no effect)); herbicidal effect on M: velvetleaf (evaluation grade 0-5) ([11]; 320 g/ha): 0 (Herbicidal rate of 5% or less (almost no effect)); herbicidal effect on N: redroot pigweed (evaluation grade 0-5) ([12]; 320 g/ha): 4 (Herbicidal rate of 70% or more and less than 90%); herbicidal effect on O: lambsquarters (evaluation grade 0-5) ([13]; 320 g/ha): 3 (Herbicidal rate of 40% or more and less than 70%); herbicidal effect on P: chickweed (evaluation grade 0-5) ([14]; 320 g/ha): 5 (Herbicidal rate of 90% or more (almost completely withered)); herbicidal effect on R: persian speedwell (evaluation grade 0-5) ([15]; 320 g/ha): 3 (Herbicidal rate of 40% or more and less than 70%) |
| CSc1ccccc1-c1sc2c(C)cccc2c1-c1c(O)c(C)nn(C)c1=O [4-116] | 3 (Herbicidal rate of 40% or more and less than 70%) | 4 (Herbicidal rate of 70% or more and less than 90%) | 3 (Herbicidal rate of 40% or more and less than 70%) | 0 (Herbicidal rate of 5% or less (almost no effect)) | 0 (Herbicidal rate of 5% or less (almost no effect)) | 0 (Herbicidal rate of 5% or less (almost no effect)) | 0 (Herbicidal rate of 5% or less (almost no effect)) | 0 (Herbicidal rate of 5% or less (almost no effect)) | 0 (Herbicidal rate of 5% or less (almost no effect)) | 0 (Herbicidal rate of 5% or less (almost no effect)) | 0 (Herbicidal rate of 5% or less (almost no effect)) | 0 (Herbicidal rate of 5% or less (almost no effect)) | 0 (Herbicidal rate of 5% or less (almost no effect)) | 4 (Herbicidal rate of 70% or more and less than 90%) | 4 (Herbicidal rate of 70% or more and less than 90%) |  |
